Assay results: paper PMC12385234, “In Vitro Inhibitory Effects and Molecular Mechanism of Four Theaflavins on Isozymes of CYP450 and UGTs” (Foods, 2025)
Read-outs that look alike come from different tables or passages of the source.

Tests used:
UGT1A1 [1] = details: cited from earlier work
UGT1A9 = details: cited from earlier work
CYP2B6 = biological target: T1, CYP2B6 (Homo sapiens, UniProt P20813); experiment: Inhibition of CYP2B6 (bupropion) in pooled human liver microsomes
T1 sequence (P20813 1-491): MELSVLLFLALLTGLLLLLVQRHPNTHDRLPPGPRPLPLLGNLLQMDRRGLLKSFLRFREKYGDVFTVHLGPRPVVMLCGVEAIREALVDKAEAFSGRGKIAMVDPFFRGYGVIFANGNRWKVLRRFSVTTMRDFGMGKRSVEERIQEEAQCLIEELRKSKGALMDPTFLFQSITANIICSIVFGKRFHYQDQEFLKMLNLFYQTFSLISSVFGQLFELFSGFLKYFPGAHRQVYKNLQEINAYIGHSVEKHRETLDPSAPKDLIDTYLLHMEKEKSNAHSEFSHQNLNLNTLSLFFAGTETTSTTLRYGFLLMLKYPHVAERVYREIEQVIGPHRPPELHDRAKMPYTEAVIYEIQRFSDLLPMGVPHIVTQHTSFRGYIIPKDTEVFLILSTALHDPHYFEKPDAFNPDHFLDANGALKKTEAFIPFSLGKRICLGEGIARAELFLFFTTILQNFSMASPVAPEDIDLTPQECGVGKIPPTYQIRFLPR
Experimental: (§1) The virological tests for AIDS, hepatitis B, and hepatitis C of the donors were negative. The final reaction volume was 150 µL, and the reaction was carried out in a 96-well deep-well cell plate made of polypropylene. The reaction was conducted at a temperature of 37 °C. […]
(§2) The AB SCIEX 4000/5000 HPLC-MS/MS system, integrated with the HTS PAL autosampler (CTC Analytics AG, Basel, Switzerland) and Shimadzu LC 20 series HPLC (Shimadzu Corporation, Kyoto, Japan), was used for analysis. […] Quantification was achieved by calculating the area under the curve (AUC) for each MRM transition. […]
(§3) In accordance with the DDI guidelines from the NMPA and the US FDA, the inhibition of CYP1A2, 2B6, 2C8, 2C9, 2C19, 2D6, and 3A4 activity by the test article was assessed. The inhibitory effect was determined by measuring the reduction in metabolite formation of respective probe substrates, expressed as relative activity compared to the negative control (NC), using the following formula: Relative activity (% of NC) = (formation of metabolites in test or PC/formation in NC) × 100. […] Data processing: When the calculated value is less than 100, three significant digits are retained. When the calculated value is greater than or equal to 100, only the integer part is retained.

CYP2C9 = CYP2C9 (Homo sapiens, UniProt P11712); experiment: Inhibition of CYP2C9 (diclofenac) in pooled human liver microsomes
Chain of CYP2C9 (P11712 whole entry): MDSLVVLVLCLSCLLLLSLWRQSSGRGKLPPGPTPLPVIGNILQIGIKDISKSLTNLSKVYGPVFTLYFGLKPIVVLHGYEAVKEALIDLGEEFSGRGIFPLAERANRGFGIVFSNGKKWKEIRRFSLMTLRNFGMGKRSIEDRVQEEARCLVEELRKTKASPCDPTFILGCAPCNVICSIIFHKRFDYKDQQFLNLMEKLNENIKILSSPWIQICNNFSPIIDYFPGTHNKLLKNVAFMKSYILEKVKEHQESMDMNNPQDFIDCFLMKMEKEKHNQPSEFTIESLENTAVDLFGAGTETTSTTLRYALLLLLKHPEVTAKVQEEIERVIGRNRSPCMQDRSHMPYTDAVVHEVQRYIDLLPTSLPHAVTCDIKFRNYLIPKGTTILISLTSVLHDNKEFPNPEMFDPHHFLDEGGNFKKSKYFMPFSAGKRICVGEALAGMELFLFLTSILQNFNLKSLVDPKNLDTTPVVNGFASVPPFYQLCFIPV
Experimental: as §1, §2, §3

CYP2C19 = CYP2C19 (Homo sapiens, UniProt P33261); experiment: Inhibition of CYP2C19 (S-mephenytoin) in pooled human liver microsomes
Chain of CYP2C19 (P33261 whole entry): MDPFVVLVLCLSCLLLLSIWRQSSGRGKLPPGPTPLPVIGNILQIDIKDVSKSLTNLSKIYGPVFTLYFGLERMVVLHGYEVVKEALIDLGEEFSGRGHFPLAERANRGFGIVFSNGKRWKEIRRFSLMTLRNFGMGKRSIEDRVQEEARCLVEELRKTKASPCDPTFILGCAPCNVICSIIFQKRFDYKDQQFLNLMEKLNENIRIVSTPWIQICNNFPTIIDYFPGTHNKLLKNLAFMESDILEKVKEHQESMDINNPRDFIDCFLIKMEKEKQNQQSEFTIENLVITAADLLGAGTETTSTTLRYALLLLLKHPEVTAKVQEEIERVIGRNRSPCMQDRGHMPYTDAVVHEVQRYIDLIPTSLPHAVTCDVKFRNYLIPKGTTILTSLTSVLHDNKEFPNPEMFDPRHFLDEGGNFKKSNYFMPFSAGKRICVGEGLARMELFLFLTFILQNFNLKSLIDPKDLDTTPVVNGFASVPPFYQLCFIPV
Experimental: (§4) The final reaction volume was 150 µL, and the reaction was carried out in a 96-well deep-well cell plate made of polypropylene. The reaction was conducted at a temperature of 37 °C. To ensure that the reaction time was within the linear range of the metabolic rate and to avoid data distortion caused by substrate depletion or product feedback inhibition, the reaction time for each substrate varied as follows: the incubation time for detecting CYP3A4 enzyme activity was 5 min; the incubation time for detecting CYP2B6, CYP2C8, CYP2C9, and CYP2D6 enzyme activities was 10 min each; the incubation time for detecting CYP1A2 and CYP2C19 enzyme activities was 30 min each.
(§5) The AB SCIEX 4000/5000 HPLC-MS/MS system, integrated with the HTS PAL autosampler (CTC Analytics AG, Basel, Switzerland) and Shimadzu LC 20 series HPLC (Shimadzu Corporation, Kyoto, Japan), was used for analysis. […]
(§6) In accordance with the DDI guidelines from the NMPA and the US FDA, the inhibition of CYP1A2, 2B6, 2C8, 2C9, 2C19, 2D6, and 3A4 activity by the test article was assessed. The inhibitory effect was determined by measuring the reduction in metabolite formation of respective probe substrates, expressed as relative activity compared to the negative control (NC), using the following formula: Relative activity (% of NC) = (formation of metabolites in test or PC/formation in NC) × 100. […]

CYP2D6 = CYP2D6 (Homo sapiens, UniProt P10635); experiment: Inhibition of CYP2D6 (dextromethorphan) in pooled human liver microsomes
Chain of CYP2D6 (P10635 whole entry): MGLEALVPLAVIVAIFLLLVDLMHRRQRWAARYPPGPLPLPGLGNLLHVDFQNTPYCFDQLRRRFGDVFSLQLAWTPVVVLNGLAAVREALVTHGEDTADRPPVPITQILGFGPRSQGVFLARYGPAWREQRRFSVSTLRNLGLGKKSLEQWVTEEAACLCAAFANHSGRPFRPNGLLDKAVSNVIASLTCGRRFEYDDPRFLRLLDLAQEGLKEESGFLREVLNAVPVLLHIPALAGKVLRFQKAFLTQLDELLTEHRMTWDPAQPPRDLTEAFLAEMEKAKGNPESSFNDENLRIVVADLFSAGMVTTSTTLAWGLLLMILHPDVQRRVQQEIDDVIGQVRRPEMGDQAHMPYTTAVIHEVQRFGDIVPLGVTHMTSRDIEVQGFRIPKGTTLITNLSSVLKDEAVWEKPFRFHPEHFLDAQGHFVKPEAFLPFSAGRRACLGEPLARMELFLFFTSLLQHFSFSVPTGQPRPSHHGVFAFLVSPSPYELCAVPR
Experimental: as §4, §5, §6

CYP3A4 = CYP3A4 (Homo sapiens, UniProt P08684); experiment: Inhibition of CYP3A4 (testosterone, midazolam) in pooled human liver microsomes
Chain of CYP3A4 (P08684 whole entry): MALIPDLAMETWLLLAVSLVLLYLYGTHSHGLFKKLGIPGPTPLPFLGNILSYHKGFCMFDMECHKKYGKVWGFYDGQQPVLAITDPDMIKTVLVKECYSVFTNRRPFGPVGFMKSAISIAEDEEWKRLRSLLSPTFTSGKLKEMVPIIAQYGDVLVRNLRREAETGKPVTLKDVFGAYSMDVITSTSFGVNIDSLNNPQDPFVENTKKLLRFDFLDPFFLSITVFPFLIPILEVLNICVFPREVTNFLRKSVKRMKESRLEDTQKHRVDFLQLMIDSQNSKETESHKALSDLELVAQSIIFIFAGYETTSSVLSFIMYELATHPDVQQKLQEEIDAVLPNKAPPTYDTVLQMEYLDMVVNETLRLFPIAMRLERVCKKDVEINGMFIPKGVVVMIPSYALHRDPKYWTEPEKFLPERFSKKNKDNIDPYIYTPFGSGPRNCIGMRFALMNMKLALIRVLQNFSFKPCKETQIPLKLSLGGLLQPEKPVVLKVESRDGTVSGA
Experimental: as §1, §2, §3

UGT1A3 = biological target: T2, UGT1A3 (Homo sapiens, UniProt P35503); experiment: Inhibition of UGT1A3-mediated beta-estradiol glucuronidation, human recombinant UGT
T2 sequence (P35503 29-534): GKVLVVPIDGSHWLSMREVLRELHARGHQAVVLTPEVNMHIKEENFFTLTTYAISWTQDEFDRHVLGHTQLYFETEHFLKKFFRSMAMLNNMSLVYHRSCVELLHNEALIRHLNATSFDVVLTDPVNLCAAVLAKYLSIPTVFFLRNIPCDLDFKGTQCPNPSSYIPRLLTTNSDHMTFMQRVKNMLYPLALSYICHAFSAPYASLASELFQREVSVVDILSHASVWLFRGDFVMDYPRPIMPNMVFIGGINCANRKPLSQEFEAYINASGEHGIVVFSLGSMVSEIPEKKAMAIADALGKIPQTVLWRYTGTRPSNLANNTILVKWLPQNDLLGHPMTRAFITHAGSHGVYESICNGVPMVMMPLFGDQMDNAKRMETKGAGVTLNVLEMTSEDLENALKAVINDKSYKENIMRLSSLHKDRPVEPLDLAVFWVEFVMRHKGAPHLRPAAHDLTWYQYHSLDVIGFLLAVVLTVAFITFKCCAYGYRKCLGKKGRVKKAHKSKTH
Experimental: (§7) These enzymes were then incubated with each compound (Table 1). Subsequently, the corresponding substrates for each UGT isoenzyme were added. The inhibitory effects of the respective products were evaluated by measuring their generation. […] Each incubation mixture was prepared in triplicate, containing 0.25 mg/mL recombinant enzyme, 5 mM UDPGA, and 10 mM propylthiouracil, among other conditions.

UGT1A1 [2] = biological target: T3, UGT1A1 (Homo sapiens, UniProt P22309); experiment: Inhibition of UGT1A1-catalyzed beta-estradiol glucuronidation, human recombinant UGT
T3 sequence (P22309 26-533): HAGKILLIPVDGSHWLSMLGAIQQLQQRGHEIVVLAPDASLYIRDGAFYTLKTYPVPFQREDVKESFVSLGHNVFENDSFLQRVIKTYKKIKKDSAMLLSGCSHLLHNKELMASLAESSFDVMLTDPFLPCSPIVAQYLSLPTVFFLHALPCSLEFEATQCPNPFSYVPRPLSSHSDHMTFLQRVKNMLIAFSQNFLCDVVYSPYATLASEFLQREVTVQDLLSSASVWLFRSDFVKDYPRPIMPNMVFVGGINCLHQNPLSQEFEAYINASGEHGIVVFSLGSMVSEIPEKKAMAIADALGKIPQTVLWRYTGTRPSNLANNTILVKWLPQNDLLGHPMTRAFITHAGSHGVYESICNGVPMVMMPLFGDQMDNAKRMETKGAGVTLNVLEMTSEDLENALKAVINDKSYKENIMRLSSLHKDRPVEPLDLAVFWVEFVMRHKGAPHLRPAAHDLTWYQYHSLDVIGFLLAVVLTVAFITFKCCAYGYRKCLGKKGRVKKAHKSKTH
Experimental: as §7

CYP1A2 = biological target: T4, CYP1A2 (Homo sapiens, UniProt P05177); experiment: Inhibition of CYP1A2-catalyzed phenacetin metabolism in pooled human liver microsomes
T4 sequence (P05177 1-516): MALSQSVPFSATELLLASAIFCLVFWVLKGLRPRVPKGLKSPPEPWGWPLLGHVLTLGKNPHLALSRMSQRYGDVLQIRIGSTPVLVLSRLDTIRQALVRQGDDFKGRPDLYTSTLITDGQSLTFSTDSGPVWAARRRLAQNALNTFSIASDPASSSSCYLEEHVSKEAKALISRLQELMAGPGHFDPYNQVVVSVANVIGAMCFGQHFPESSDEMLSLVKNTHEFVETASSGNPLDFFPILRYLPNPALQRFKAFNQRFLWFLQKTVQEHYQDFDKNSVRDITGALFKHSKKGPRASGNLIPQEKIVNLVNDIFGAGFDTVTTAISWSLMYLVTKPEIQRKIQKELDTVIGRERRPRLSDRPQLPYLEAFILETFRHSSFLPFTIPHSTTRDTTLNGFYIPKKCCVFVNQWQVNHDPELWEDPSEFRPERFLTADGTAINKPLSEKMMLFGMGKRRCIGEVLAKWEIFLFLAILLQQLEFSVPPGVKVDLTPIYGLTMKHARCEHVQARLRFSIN
Experimental: as §1, §2, §3

CYP2C8 = biological target: T5, CYP2C8 (Homo sapiens, UniProt P10632); experiment: Inhibition of CYP2C8-mediated amodiaquine metabolism in pooled human liver microsomes
T5 sequence (P10632 1-490): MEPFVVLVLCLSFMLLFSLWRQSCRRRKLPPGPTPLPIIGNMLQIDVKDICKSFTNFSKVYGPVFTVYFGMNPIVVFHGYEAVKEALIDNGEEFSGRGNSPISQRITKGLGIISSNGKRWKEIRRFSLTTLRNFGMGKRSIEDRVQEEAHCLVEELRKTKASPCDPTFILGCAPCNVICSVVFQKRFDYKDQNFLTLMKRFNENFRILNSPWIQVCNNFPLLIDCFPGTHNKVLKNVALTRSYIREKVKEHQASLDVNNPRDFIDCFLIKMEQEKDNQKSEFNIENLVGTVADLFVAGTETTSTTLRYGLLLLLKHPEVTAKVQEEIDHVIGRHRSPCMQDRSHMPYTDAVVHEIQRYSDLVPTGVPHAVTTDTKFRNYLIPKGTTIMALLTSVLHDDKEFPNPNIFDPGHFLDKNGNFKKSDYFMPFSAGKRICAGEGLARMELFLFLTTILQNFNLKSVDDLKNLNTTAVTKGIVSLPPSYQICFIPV
Experimental: as §1, §2, §3

UGT1A4 = biological target: T6, UGT1A4 (Homo sapiens, UniProt P22310); experiment: Inhibition of UGT1A4-catalyzed trifluoperazine glucuronidation, human recombinant UGT
T6 sequence (P22310 29-534): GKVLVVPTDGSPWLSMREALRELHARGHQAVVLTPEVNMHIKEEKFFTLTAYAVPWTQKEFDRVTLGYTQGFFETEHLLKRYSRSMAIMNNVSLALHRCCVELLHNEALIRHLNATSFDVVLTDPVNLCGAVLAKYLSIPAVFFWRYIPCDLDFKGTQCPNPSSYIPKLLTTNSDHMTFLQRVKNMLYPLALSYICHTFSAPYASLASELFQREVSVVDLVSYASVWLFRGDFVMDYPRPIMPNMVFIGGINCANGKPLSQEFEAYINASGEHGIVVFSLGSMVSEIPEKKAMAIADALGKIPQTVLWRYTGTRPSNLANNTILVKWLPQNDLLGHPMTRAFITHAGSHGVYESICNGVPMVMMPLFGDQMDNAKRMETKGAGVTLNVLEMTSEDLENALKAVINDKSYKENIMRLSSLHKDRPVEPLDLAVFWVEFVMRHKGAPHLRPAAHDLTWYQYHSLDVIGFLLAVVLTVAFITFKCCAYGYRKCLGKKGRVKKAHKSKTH
Experimental: as §7

UGT2B15 = biological target: T7, UGT2B15 (Homo sapiens, UniProt P54855); experiment: Inhibition of UGT2B15-catalyzed 4-trifluoromethyl-7-hydroxycoumarin glucuronidation, human recombinant UGT
T7 sequence (P54855 24-530): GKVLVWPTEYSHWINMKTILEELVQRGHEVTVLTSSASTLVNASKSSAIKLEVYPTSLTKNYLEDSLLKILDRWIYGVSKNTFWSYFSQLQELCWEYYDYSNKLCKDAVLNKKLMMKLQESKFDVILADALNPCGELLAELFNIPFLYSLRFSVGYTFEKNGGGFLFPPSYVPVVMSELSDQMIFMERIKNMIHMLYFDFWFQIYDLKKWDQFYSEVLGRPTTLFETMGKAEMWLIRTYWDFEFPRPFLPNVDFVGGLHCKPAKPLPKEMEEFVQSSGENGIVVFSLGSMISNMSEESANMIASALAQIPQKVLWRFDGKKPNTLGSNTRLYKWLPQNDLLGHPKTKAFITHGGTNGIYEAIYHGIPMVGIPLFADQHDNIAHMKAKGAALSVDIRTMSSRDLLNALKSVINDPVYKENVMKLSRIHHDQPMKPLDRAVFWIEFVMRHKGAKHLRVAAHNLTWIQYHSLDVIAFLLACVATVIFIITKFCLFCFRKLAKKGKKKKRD
Experimental: as §7

In the case of (-)-epigallocatechin-3-gallate [EGCG], the “Inhibition of UGT1A1 (in words)” value (UGT1A1 [1]) is given as “moderately inhibit” and the “Inhibition of UGT1A9 (in words)” value (UGT1A9) is given as “moderately inhibit”.

For `O=c1c(O)c(-c2ccc(O)c(O)c2)oc2cc(O)cc(O)c12` [quercetin], the “Inhibition of UGT1A1 (in words)” value (UGT1A1 [1]) is given as “strong inhibition”.

With `O=c1c(O)cc([C@H]2Oc3cc(O)cc(O)c3C[C@H]2O)cc2c([C@H]3Oc4cc(O)cc(O)c4C[C@H]3O)cc(O)c(O)c12` [Theaflavin, theaflavin] the IC50 (CYP2B6) was > 20 µM, the IC50 (CYP2C9) was > 20 µM and the IC50 (CYP2C19) was > 20 µM. For the same molecule, the IC50 (CYP2D6) was > 20 µM, the IC50 (CYP3A4) was > 20 µM and the IC50 (CYP3A4; read-out: IC50, CYP3A4-M, pooled HLMs, probe midazolam) was > 20 µM. The IC50 (UGT1A3) was > 20 µM, the IC50 (UGT1A1 [2]) was 3.89 µM and the IC50 (CYP1A2) was > 20 µM. The IC50 (CYP2C8) was > 20 µM, the IC50 (UGT1A4) was > 20 µM and the IC50 (UGT2B15) was > 20 µM.
